Values after ≈ are worked out from the molar mass of the structure shown. Active and inactive are the calls of the source. No cut-off for these calls is given here.
Legend:
[1] = system: Mycobacterium tuberculosis; experiment: Antibacterial activity against Mycobacterium tuberculosis H37Rv after 1 week in presence of efflux pump inhibitor piperine by MABA; assay type: functional; details: 168 h
[2] = system: Mycobacterium tuberculosis; experiment: Antibacterial activity against Mycobacterium tuberculosis H37Rv after 1 week in presence of efflux pump inhibitor verapamil by MABA; assay type: functional; details: 168 h
[3] = system: Mycobacterium tuberculosis; experiment: Antibacterial activity against Mycobacterium tuberculosis H37Rv after 1 week by MABA; assay type: functional; details: 168 h
[4] = Cytotoxicity against mouse RAW264.7 cells assessed as growth inhibition at 25 uM after 48 hrs by MTT assay relative to control; assay type: cell-based; details: read-out: GI
[5] = molecular target: T1, Glutamate racemase (Mycobacterium tuberculosis (strain ATCC 25618 / H37Rv)) (UniProt P9WPW9); experiment: Binding affinity to Mycobacterium tuberculosis glutamate racemase assessed as change in melting temperature by SYPRO orange dye based fluorescence assay
T1 sequence (whole entry): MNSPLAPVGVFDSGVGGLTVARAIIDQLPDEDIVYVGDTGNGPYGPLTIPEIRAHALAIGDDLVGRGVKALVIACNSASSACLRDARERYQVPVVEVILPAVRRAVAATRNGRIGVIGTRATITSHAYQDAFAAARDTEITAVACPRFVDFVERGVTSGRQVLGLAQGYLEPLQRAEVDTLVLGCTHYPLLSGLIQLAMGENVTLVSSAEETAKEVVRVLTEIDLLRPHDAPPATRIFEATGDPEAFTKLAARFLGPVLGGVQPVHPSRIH

[6] = system: Mycobacterium tuberculosis; experiment: Antibiofilm activity against Mycobacterium tuberculosis H37Rv at 10 ug/ml after 1 week; assay type: functional
[7] = system: Mycobacterium tuberculosis; experiment: Antibacterial activity against non replicating Mycobacterium tuberculosis H37Rv assessed as log reduction in bacterial count at 10 ug/ml incubated for 7 days followed by compound dilution measured after 4 weeks; assay type: functional
[8] = system: Mycobacterium tuberculosis; experiment: Bacteriostatic activity against Mycobacterium tuberculosis H37Rv at 5 to 20 uM incubated up to 21 days; assay type: functional, organism-based
[9] = system: Mycobacterium tuberculosis; experiment: Ratio of MBC to MIC for Mycobacterium tuberculosis H37Rv; assay type: functional
Mycobacterium marinum [10] = experiment: Antibacterial activity against Mycobacterium marinum ATCC BAA-535 infected in zebra fish assessed as log reduction in bacterial load at 5 mg/kg, po for 7 days; assay type: functional
Mycobacterium marinum [11] = experiment: Antibacterial activity against Mycobacterium marinum ATCC BAA-535 infected in zebra fish assessed as log reduction in bacterial load at 10 mg/kg, po for 7 days; assay type: functional
[12] = molecular target: T1, Glutamate racemase (Mycobacterium tuberculosis (strain ATCC 25618 / H37Rv)); experiment: Non-competitive inhibition of Mycobacterium tuberculosis glutamate racemase assessed as change in melting temperature in presence of substrate D-glutamate by SYPRO orange dye based fluorescence assay
[13] = molecular target: T1, Glutamate racemase (Mycobacterium tuberculosis (strain ATCC 25618 / H37Rv)); experiment: Non-competitive inhibition of Mycobacterium tuberculosis glutamate racemase assessed as change in melting temperature by SYPRO orange dye based fluorescence assay
[14] = system: Mycobacterium tuberculosis; experiment: Bactericidal activity against Mycobacterium tuberculosis H37Rv incubated up to 21 days; assay type: functional, organism-based
[15] = system: Mycobacterium tuberculosis; experiment: Bacteriostatic activity against Mycobacterium tuberculosis H37Rv assessed as reduction in bacterial count at 25 uM incubated up to 21 days relative to control; assay type: functional

Structure (SMILES)	MIC [1] [µM]	MIC [2] [µM]	MIC [3] [µM]	inhibition at 48 h, 25 µM [4] [%]	further results
O=[N+]([O-])c1ccc(NC(=S)Nc2cccc(-c3nc4cc(C(F)(F)F)ccc4s3)c2)cc1	52.7	3.34	52.7 (≈ 25 µg/mL)	18.4	–
O=C(Nc1ccccc1)Nc1cccc(-c2nc3ccccc3s2)c1	–	–	72.9 (≈ 25.2 µg/mL)	97.2	–
O=C(Nc1ccc(F)cc1)Nc1cccc(-c2nc3ccccc3s2)c1	–	–	–	–	ΔTm [5]: 3.3 °C
CO[C@H]1/C=C/O[C@@]2(C)Oc3c(C)c(O)c4c(O)c(c(/C=N/N5CCN(C)CC5)c(O)c4c3C2=O)NC(=O)/C(C)=C\C=C\[C@H](C)[C@H](O)[C@@H](C)[C@@H](O)[C@@H](C)[C@H](OC(C)=O)[C@@H]1C [RIFAMPIN]	0.15	0.15	0.15 (≈ 0.123 µg/mL)	–	log(activity) [6]: 1.2; log(activity) [7]: 0.5
Fc1ccc(NC(=S)Nc2cccc(-c3nc4cc(C(F)(F)F)ccc4s3)c2)cc1	27.9	7.01	27.9 (≈ 12.5 µg/mL)	76.3	Activity [8]: Active; Ratio [9]: >4; log(activity) [7]: 2.1
FC(F)(F)c1ccc2sc(-c3cccc(NC(=S)NCc4ccccc4)c3)nc2c1	–	–	14.7 (≈ 6.52 µg/mL)	96.1	log(activity) [6]: 1.8; Activity [8]: Active; Ratio [9]: >4; log(activity) [7]: 2.1
FC(F)(F)c1ccc2sc(-c3cccc(NC(=S)Nc4ccccc4)c3)nc2c1	14.6	1.84	14.7 (≈ 6.3 µg/mL)	28.1	–
O=C(Nc1ccccc1)Nc1cccc(-c2nc3cc(C(F)(F)F)ccc3s2)c1	–	–	3.76 (≈ 1.55 µg/mL)	40	–
Cc1ccc(NC(=O)Nc2cccc(-c3nc4cc(C(F)(F)F)ccc4s3)c2)cc1	–	–	58.6 (≈ 25 µg/mL)	22.5	–
S=C(Nc1ccccc1)Nc1cccc(-c2nc3ccccc3s2)c1	–	–	69.2 (≈ 25 µg/mL)	2.35	–
Cc1ccc(NC(=O)Nc2cccc(-c3nc4ccccc4s3)c2)cc1	69.7	2.17	69.7 (≈ 25 µg/mL)	31.2	–
Fc1ccc(NC(=S)Nc2cccc(-c3nc4ccccc4s3)c2)cc1	2.15	2.15	2.15 (≈ 0.816 µg/mL)	98.2	–
FC(F)(F)c1ccc2sc(-c3cccc(NC(=S)Nc4ccc(Cl)cc4)c3)nc2c1	–	–	53.9 (≈ 25 µg/mL)	97.3	–
O=C(Nc1ccc(F)cc1)Nc1cccc(-c2nc3cc(C(F)(F)F)ccc3s2)c1	–	–	57.9 (≈ 25 µg/mL)	97.7	–
O=C(Nc1ccc([N+](=O)[O-])cc1)Nc1cccc(-c2nc3cc(C(F)(F)F)ccc3s2)c1	–	–	54.7 (≈ 25.1 µg/mL)	99.2	–
O=C(Nc1ccc(Cl)cc1)Nc1cccc(-c2nc3ccccc3s2)c1	–	–	65.9 (≈ 25 µg/mL)	30.1	–
CC[C@@H](CO)NCCN[C@@H](CC)CO [ETHAMBUTOL]	3.82	3.82	7.64 (≈ 1.56 µg/mL)	–	–
NNC(=O)c1ccncc1 [ISONIAZID]	0.72	0.72	0.72 (≈ 0.0987 µg/mL)	–	log(activity) [6]: 1; log(activity) (Mycobacterium marinum [10]): 2.6; log(activity) [7]: 1.1
S=C(Nc1ccc(Cl)cc1)Nc1cccc(-c2nc3ccccc3s2)c1	–	–	2.09 (≈ 0.828 µg/mL)	58.4	–
COc1ccc(NC(=O)Nc2cccc(-c3nc4cc(C(F)(F)F)ccc4s3)c2)cc1	–	–	56.4 (≈ 25 µg/mL)	59.1	–
Cc1ccc(NC(=S)Nc2cccc(-c3nc4ccccc4s3)c2)cc1	16.6	8.29	16.6 (≈ 6.24 µg/mL)	17.5	log(activity) [6]: 2; Activity [8]: Active; Ratio [9]: >4; log(activity) (Mycobacterium marinum [11]): 3.5; log(activity) [7]: 2.1; ΔTm [12]: 4.7 °C; ΔTm [13]: 3.9 °C
O=C(Nc1ccc(Cl)cc1)Nc1cccc(-c2nc3cc(C(F)(F)F)ccc3s2)c1	–	–	55.9 (≈ 25 µg/mL)	45.7	–
COc1c(N2C[C@@H]3CCCN[C@@H]3C2)c(F)cc2c(=O)c(C(=O)O)cn(C3CC3)c12 [MOXIFLOXACIN]	–	–	–	–	log(activity) [6]: 1.8; log(activity) (Mycobacterium marinum [11]): 2.5; Activity [7]: Active
COc1ccc(NC(=O)Nc2cccc(-c3nc4ccccc4s3)c2)cc1	–	–	33.3 (≈ 12.5 µg/mL)	56.1	–
S=C(NCc1ccccc1)Nc1cccc(-c2nc3ccccc3s2)c1	66.6	2.12	66.6 (≈ 25 µg/mL)	32.2	–
O=C(Nc1ccc([N+](=O)[O-])cc1)Nc1cccc(-c2nc3ccccc3s2)c1	8.09	2.04	8.09 (≈ 3.16 µg/mL)	42.1	log(activity) [6]: 0.7; Activity [14]: Dose-dependent effect; Ratio [9]: <4; fold change (FC) [15]: >3; log(activity) [7]: 2.1
O=[N+]([O-])c1ccc(NC(=S)Nc2cccc(-c3nc4ccccc4s3)c2)cc1	–	–	61.6 (≈ 25 µg/mL)	98.2	–
N[C@H](CCC(=O)O)C(=O)O	–	–	–	–	ΔTm [5]: 2.4 °C
Cc1ccc(NC(=S)Nc2cccc(-c3nc4cc(C(F)(F)F)ccc4s3)c2)cc1	–	–	28.3 (≈ 12.5 µg/mL)	97.1	–
